In ChEMBL document CHEMBL1138586 (Bioorg Med Chem Lett, 2009):

Key:
Coagulation factor X = Coagulation factor X (Homo sapiens, UniProt P00742); assay: Inhibition of Factor 10a
[1] = Half life in rat; format: ADME, organism-based; settings: in vivo
[2] = Metabolic stability in rat liver S9 fraction at 1 uM by HPLC; format: ADME, subcellular
[3] = Metabolic stability in human liver S9 fraction at 1 uM by HPLC; format: ADME, subcellular
[4] = Oral bioavailability in rat; format: ADME, organism-based; settings: in vivo
[5] = Clearance in rat; format: ADME, organism-based; settings: in vivo
Prothrombin = Prothrombin (Homo sapiens, UniProt P00734); assay: Inhibition of thrombin
Plasminogen = Plasminogen (Homo sapiens, UniProt P00747); assay: Inhibition of plasmin
Chain of Plasminogen (P00747 97-580 limits assumed): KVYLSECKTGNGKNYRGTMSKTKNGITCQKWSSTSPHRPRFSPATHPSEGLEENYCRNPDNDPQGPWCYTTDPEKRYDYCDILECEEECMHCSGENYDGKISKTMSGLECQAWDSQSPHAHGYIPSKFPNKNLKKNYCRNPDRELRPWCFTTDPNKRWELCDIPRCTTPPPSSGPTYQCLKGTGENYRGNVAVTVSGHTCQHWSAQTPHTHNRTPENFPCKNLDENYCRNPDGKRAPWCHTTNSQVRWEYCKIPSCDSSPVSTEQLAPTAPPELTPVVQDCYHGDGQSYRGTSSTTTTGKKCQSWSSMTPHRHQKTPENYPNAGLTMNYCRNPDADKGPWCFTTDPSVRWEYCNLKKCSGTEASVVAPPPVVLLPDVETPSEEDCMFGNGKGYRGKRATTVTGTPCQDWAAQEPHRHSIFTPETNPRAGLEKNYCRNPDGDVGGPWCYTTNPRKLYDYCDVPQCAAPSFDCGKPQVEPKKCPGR
Chain of Plasminogen (P00747 581-810 limits assumed): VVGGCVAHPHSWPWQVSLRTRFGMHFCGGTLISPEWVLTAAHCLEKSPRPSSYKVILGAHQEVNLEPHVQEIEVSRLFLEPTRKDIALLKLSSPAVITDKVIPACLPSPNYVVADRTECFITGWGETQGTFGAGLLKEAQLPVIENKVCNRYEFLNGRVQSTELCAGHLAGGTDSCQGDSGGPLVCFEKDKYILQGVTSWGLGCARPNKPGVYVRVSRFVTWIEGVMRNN

[6] = AUC in Beagle dog at 1 mg/kg, po; format: ADME, organism-based, Canis lupus familiaris; design: dose 1 mg/kg, route oral; settings: plasma
[7] = Volume of distribution in cynomolgus monkey at 0.1 mg/kg, iv and 1 mg/kg, po; format: ADME, organism-based, Macaca fascicularis; settings: in vivo
[8] = biological target: T1, Voltage-gated inwardly rectifying potassium channel KCNH2 (Homo sapiens, UniProt Q12809)
T1 sequence (Q12809 whole entry): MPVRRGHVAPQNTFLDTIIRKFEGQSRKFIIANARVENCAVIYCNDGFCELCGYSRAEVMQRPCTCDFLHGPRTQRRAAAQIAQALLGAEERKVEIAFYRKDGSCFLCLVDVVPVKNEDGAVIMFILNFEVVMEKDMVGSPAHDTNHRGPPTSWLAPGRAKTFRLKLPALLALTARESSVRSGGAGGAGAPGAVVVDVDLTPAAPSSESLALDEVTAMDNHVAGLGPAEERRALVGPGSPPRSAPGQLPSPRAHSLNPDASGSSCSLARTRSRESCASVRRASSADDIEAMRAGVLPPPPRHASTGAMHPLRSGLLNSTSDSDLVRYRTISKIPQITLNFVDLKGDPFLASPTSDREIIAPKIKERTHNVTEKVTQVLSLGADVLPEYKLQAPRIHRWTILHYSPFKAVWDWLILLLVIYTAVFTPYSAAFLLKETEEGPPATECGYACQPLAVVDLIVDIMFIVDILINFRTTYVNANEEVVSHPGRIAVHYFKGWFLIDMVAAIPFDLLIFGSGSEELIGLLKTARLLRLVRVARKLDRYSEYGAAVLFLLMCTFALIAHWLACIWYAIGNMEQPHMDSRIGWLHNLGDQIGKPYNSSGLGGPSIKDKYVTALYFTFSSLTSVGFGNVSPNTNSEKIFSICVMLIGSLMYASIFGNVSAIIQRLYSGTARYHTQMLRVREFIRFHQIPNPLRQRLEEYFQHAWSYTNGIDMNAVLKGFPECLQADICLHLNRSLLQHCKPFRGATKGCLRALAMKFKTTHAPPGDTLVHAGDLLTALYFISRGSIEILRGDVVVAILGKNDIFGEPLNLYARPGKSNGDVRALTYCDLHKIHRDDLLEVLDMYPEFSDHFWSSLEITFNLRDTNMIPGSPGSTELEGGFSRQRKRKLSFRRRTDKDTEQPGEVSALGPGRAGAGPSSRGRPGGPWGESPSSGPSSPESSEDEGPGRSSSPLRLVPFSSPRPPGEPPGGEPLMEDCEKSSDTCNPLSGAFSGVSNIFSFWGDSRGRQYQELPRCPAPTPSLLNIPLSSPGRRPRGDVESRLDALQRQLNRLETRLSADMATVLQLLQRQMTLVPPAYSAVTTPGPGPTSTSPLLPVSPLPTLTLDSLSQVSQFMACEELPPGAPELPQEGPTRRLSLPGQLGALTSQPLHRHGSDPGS

[9] = Inhibition of kallikrein
[10] = Clearance in Beagle dog at 0.1 mg/kg, iv and 1 mg/kg, po; format: ADME, organism-based, Canis lupus familiaris; settings: in vivo
[11] = Volume of distribution in rat at 0.2 mg/kg, iv and 6 mg/kg, po; format: ADME, organism-based; settings: in vivo
[12] = Half life in Beagle dog at 0.1 mg/kg, iv and 1 mg/kg, po; format: ADME, organism-based, Canis lupus familiaris; settings: in vivo
[13] = Clearance in rat at 0.2 mg/kg, iv and 6 mg/kg, po; format: ADME, organism-based; settings: in vivo
[14] = Oral bioavailability in cynomolgus monkey at 1 mg/kg; format: ADME, organism-based, Macaca fascicularis; settings: in vivo
[15] = AUC in rat at 6 mg/kg, po; format: ADME, organism-based; design: dose 6 mg/kg, route oral; settings: plasma
[16] = Oral bioavailability in rat at 6 mg/kg; format: ADME, organism-based; settings: in vivo
[17] = Volume of distribution in Beagle dog at 0.1 mg/kg, iv and 1 mg/kg, po; format: ADME, organism-based, Canis lupus familiaris; settings: in vivo
[18] = Oral bioavailability in Beagle dog at 1 mg/kg; format: ADME, organism-based, Canis lupus familiaris; settings: in vivo
[19] = Inhibition of trypsin
[20] = Clearance in cynomolgus monkey at 0.1 mg/kg, iv and 1 mg/kg, po; format: ADME, organism-based, Macaca fascicularis; settings: in vivo
[21] = Half life in cynomolgus monkey at 0.1 mg/kg, iv and 1 mg/kg, po; format: ADME, organism-based, Macaca fascicularis; settings: in vivo
[22] = biological target: Tissue-type plasminogen activator (Homo sapiens, UniProt P00750); assay: Inhibition of tissue plasminogen activator
Chain of Tissue-type plasminogen activator (P00750 whole entry): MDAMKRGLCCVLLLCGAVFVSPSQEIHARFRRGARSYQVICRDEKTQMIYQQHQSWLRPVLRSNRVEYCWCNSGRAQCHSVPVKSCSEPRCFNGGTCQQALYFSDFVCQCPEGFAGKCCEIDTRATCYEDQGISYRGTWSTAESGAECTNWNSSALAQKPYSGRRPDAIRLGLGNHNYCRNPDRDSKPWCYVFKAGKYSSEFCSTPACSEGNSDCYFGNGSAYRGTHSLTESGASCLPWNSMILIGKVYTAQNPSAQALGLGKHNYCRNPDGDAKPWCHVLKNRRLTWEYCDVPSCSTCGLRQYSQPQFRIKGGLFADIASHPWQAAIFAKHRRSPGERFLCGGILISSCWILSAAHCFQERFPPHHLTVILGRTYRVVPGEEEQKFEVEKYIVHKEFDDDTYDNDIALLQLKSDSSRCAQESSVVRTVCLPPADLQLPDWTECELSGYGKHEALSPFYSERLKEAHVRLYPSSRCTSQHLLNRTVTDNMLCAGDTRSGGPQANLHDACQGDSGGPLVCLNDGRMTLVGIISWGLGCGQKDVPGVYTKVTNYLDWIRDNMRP

[23] = biological target: Vitamin K-dependent protein C (Homo sapiens, UniProt P04070); assay: Inhibition of activated anticoagulant protein C
Chain of Vitamin K-dependent protein C (P04070 43-197 limits assumed): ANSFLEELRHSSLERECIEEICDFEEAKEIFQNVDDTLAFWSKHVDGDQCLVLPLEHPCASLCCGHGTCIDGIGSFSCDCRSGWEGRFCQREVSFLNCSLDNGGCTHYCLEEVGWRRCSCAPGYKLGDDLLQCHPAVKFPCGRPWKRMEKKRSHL
Chain of Vitamin K-dependent protein C (P04070 212-461 limits assumed): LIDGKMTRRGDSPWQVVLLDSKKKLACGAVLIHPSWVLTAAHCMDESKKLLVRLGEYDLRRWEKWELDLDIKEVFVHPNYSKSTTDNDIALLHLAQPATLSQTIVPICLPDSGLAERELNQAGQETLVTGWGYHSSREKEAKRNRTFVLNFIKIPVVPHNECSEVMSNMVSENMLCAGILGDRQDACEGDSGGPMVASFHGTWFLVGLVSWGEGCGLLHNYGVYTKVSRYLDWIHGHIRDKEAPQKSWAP

[24] = AUC in cynomolgus monkey at 1 mg/kg, po; format: ADME, organism-based, Macaca fascicularis; design: dose 1 mg/kg, route oral; settings: plasma
[25] = Half life in rat at 0.2 mg/kg, iv and 6 mg/kg, po; format: ADME, organism-based; settings: in vivo
[26] = Oral bioavailability in cynomolgus monkey at 7.5 mg/kg; format: ADME, organism-based, Macaca fascicularis; settings: in vivo
[27] = Clearance in cynomolgus monkey at 0.75 mg/kg, iv and 7.5 mg/kg, po; format: ADME, organism-based, Macaca fascicularis; settings: in vivo
[28] = Oral bioavailability in Beagle dog at 2.5 mg/kg; format: ADME, organism-based, Canis lupus familiaris; settings: in vivo
[29] = Oral bioavailability in rat at 5 mg/kg; format: ADME, organism-based; settings: in vivo
[30] = Half life in rat at 1 mg/kg, iv and 5 mg/kg, po; format: ADME, organism-based; settings: in vivo
[31] = AUC in cynomolgus monkey at 7.5 mg/kg, po; format: ADME, organism-based, Macaca fascicularis; design: dose 7.5 mg/kg, route oral; settings: plasma
[32] = Half life in Beagle dog at 0.5 mg/kg, iv and 2.5 mg/kg, po; format: ADME, organism-based, Canis lupus familiaris; settings: in vivo
[33] = AUC in Beagle dog at 2.5 mg/kg, po; format: ADME, organism-based, Canis lupus familiaris; design: dose 2.5 mg/kg, route oral; settings: plasma
[34] = Volume of distribution in Beagle dog at 0.5 mg/kg, iv and 2.5 mg/kg, po; format: ADME, organism-based, Canis lupus familiaris; settings: in vivo
[35] = AUC in rat at 5 mg/kg, po; format: ADME, organism-based; design: dose 5 mg/kg, route oral; settings: plasma
[36] = Clearance in rat at 1 mg/kg, iv and 5 mg/kg, po; format: ADME, organism-based; settings: in vivo
[37] = Half life in cynomolgus monkey at 0.75 mg/kg, iv and 7.5 mg/kg, po; format: ADME, organism-based, Macaca fascicularis; settings: in vivo
[38] = Volume of distribution in rat at 1 mg/kg, iv and 5 mg/kg, po; format: ADME, organism-based; settings: in vivo
[39] = Fraction unbound in human plasma at 10 uM after 30 mins; format: ADME, cell-free
[40] = Clearance in Beagle dog at 0.5 mg/kg, iv and 2.5 mg/kg, po; format: ADME, organism-based, Canis lupus familiaris; settings: in vivo
[41] = Volume of distribution in cynomolgus monkey at 0.75 mg/kg, iv and 7.5 mg/kg, po; format: ADME, organism-based, Macaca fascicularis; settings: in vivo
[42] = Oral bioavailability in Sprague-Dawley rat at 6 mg/kg; format: ADME, organism-based; settings: in vivo
[43] = biological target: T1, Voltage-gated inwardly rectifying potassium channel KCNH2; assay: Inhibition of human ERG expressed in HEK293 cells by patch-clamp method; format: cell-based

Chain of Coagulation factor X (P00742 41-179 limits assumed): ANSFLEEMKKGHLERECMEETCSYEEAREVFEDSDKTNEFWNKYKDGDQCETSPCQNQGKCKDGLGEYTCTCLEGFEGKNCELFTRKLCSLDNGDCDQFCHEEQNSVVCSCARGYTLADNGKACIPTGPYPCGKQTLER
Chain of Coagulation factor X (P00742 235-488 limits assumed): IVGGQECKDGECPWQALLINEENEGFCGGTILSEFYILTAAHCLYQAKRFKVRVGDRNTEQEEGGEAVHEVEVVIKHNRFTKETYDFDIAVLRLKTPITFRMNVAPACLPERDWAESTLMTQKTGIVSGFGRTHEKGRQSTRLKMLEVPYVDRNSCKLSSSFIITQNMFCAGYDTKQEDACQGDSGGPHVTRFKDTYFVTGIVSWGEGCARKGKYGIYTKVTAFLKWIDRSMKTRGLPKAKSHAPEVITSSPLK

SMILES: CSc1ccc(NC(=O)c2ccc(C(=N)N(C)C)cc2)c(C(=O)Nc2ccc(Cl)cn2)c1
- IC50 (Coagulation factor X): < 0.5 nM
- half-life [1]: 16.5 h
- half-life at 1 µM [2]: > 2 h
- half-life at 1 µM [3]: > 2 h
- bioavailability [4]: 26.7%
- clearance [5]: 4.63 L/h/kg

SMILES: CN(C)C(=N)c1ccc(C(=O)Nc2ccc(Cl)cc2C(=O)Nc2ccc(Cl)cn2)c(F)c1
- IC50 (Prothrombin): > 10000 nM
- IC50 (Plasminogen): > 10000 nM
- AUC [6]: 0.381 µg·h/mL
- Vd [7]: 20.5 L/kg
- Ki [8]: 420 nM
- IC50 [9]: 540 nM
- IC50 (Coagulation factor X): < 0.5 nM
- Ki (Coagulation factor X): 0.06 nM
- clearance [10]: 1.83 L/h/kg
- Vd [11]: 6.9 L/kg
- half-life [12]: 13.1 h
- clearance [13]: 0.918 L/h/kg
- bioavailability [14]: 86.1%
- AUC [15]: 2.43 µg·h/mL
- bioavailability [16]: 38%
- Vd [17]: 35.1 L/kg
- bioavailability [18]: 68.8%
- IC50 [19]: > 10000 nM
- clearance [20]: 0.672 L/h/kg
- half-life [21]: 22.8 h
- IC50 [22]: > 10000 nM
- bioavailability [4]: 38%
- IC50 [23]: > 10000 nM
- AUC [24]: 1.3 µg·h/mL
- half-life [25]: 5.2 h
- clearance [5]: 0.918 L/h/kg

SMILES: COc1ccc(NC(=O)c2ccc(C(=N)N(C)C)cc2)c(C(=O)Nc2ccc(Cl)cn2)c1 [BETRIXABAN]
- bioavailability [26]: 58.7%
- IC50 (Prothrombin): > 10000 nM
- clearance [27]: 1.12 L/h/kg
- IC50 (Plasminogen): > 10000 nM
- bioavailability [28]: 51.6%
- bioavailability [29]: 23.8%
- half-life [30]: 8.8 h
- AUC [31]: 4.18 µg·h/mL
- IC50 [9]: 6300 nM
- half-life [32]: 21.2 h
- AUC [33]: 0.825 µg·h/mL
- Vd [34]: 48.8 L/kg
- AUC [35]: 0.456 µg·h/mL
- clearance [36]: 2.62 L/h/kg
- half-life [37]: 9.6 h
- IC50 [19]: > 10000 nM
- Vd [38]: 32.9 L/kg
- fraction unbound at 0.5 h, 10 µM [39]: 0.8
- IC50 [22]: > 10000 nM
- IC50 [23]: > 10000 nM
- clearance [40]: 1.59 L/h/kg
- Vd [41]: 13.4 L/kg

SMILES: CN(C)C(=N)c1ccc(C(=O)Nc2ccccc2C(=O)Nc2ccc(Cl)cn2)cc1
- bioavailability [42]: 31%

SMILES: C#Cc1ccc(NC(=O)c2cc(Cl)ccc2NC(=O)c2ccc(C(=N)N(C)C)cc2)nc1
- IC50 (Coagulation factor X): 0.8 nM
- half-life [1]: 6.3 h
- half-life at 1 µM [2]: > 2 h
- half-life at 1 µM [3]: > 2 h
- clearance [5]: > 6 L/h/kg

SMILES: COc1ccc(NC(=O)c2ccc(C(=N)N(C)C)cc2F)c(C(=O)Nc2ccc(Cl)cn2)c1
- bioavailability [26]: 77.6%
- clearance [27]: 0.972 L/h/kg
- bioavailability [28]: 88.9%
- bioavailability [29]: 48.6%
- half-life [30]: 5.5 h
- AUC [31]: 6.17 µg·h/mL
- Ki [8]: 2100 nM
- IC50 [9]: 7200 nM
- half-life [32]: 7.9 h
- IC50 (Coagulation factor X): 0.7 nM
- Ki (Coagulation factor X): 0.105 nM
- AUC [33]: 1.5 µg·h/mL
- Vd [34]: 16.8 L/kg
- AUC [35]: 0.77 µg·h/mL
- clearance [36]: 3.45 L/h/kg
- IC50 [43]: 4200 nM
- half-life [37]: 11.4 h
- Vd [38]: 26.5 L/kg
- fraction unbound at 0.5 h, 10 µM [39]: 0.634
- clearance [40]: 1.48 L/h/kg
- Vd [41]: 16.3 L/kg

SMILES: CN(C)C(=N)c1ccc(C(=O)Nc2ccc(Cl)cc2C(=O)Nc2ccc(Cl)cn2)cc1
- IC50 (Prothrombin): > 10000 nM
- IC50 (Plasminogen): > 10000 nM
- AUC [6]: 0.32 µg·h/mL
- Vd [7]: 36.5 L/kg
- Ki [8]: 110 nM
- IC50 [9]: 510 nM
- clearance [10]: 2.04 L/h/kg
- Vd [11]: 26.1 L/kg
- half-life [12]: 15.3 h
- clearance [13]: 1.78 L/h/kg
- bioavailability [14]: 73%
- AUC [15]: 0.885 µg·h/mL
- bioavailability [16]: 26.1%
- Vd [17]: 45.7 L/kg
- IC50 [43]: 330 nM
- bioavailability [18]: 64.9%
- IC50 [19]: > 10000 nM
- clearance [20]: 1.6 L/h/kg
- fraction unbound at 0.5 h, 10 µM [39]: 0.881
- half-life [21]: 19.4 h
- IC50 [22]: > 10000 nM
- IC50 [23]: > 10000 nM
- AUC [24]: 0.512 µg·h/mL
- half-life [25]: 12.8 h
